# Results taken from patent publication US20240358705A1, “COMPOSITIONS AND METHODS FOR TREATMENT OF CANCER” (Board of Supervisors of Louisiana State University and …, priority 2021, published 2024).
# “Also recorded” adds a separate entry of the source. {AltR1} = IDT Alt-R proprietary 5' end modification; {AltR2} = IDT Alt-R proprietary 3' end modification
# Assays:
# [1] = tested on: human polymorphonuclear leukocytes and macrophages; details: cited from earlier work
# [2] = cited from earlier work
# [3] = phase II study; cited from earlier work
# [4] = tested on: macrophages, fibroblasts, myofibroblasts, and epithelial cells; details: cited from earlier work
# [5] = model of diet-induced obesity; cited from earlier work
# CD8 OT-I T cells = test: In vivo vaccination antigen titration; parameters: species or system mouse; OT-I proliferation response, lymph node: dose or concentration left out as unconfirmed
# Experimental: C57BL/6N mice were first administered 200 μg cyclophosphamide dissolved in PBS by intraperitoneal injection to induce minor lymphodepletion. 48 hours after lymphodepletion, mice were intravenously adoptively transferred 2×10^6 CFSE labeled CD8 OT-I T cells. Five hours later, mice were vaccinated by 100 μl subcutaneous injection with reducing doses of […] (SEQ ID NO: 1) (Bachem #4033142.0001) in incomplete Freund's adjuvant (IFA) (Thermo #77145). Study ended 96 hours post-vaccination and lymph node tissue was isolated for analysis. Single-cell suspensions of lymph node were stained following the immune profiling by flow cytometry method. Vaccine effectiveness was determined by the percent proliferation of adoptively transferred cells. The sub-optimal vaccine dose was then selected as the amount of antigen that elicited a 50% response.
# pmel-I CD8 T cells = test: Cytotoxicity of CRISPR-Cas9 GPR84 knockout pmel-I CD8 T cells; type: cell-based, mouse
# Experimental: CRISPR-Cas9 GPR84 pmel-I T cells were prepared following the CRISPR-Cas9 method. Non-target EL4 cells (CFSE low—0.1 μM) and target EL4gp100 cells (CFSE high—[…]) were prepared. EL4gp100 CFSE high cells were prepared by pulsing EL4 with […] gp100 (Anaspec #AS62589) and incubating for 30 minutes at 37° C., 5% C02. Cells were subsequently washed, pelleted, resuspended at 1×10^6 cells/ml, and mixed at 1:1 ratio. 1×10^5 of the mixed cells were plated into a 96-well round-bottom plate. In technical duplicate or triplicate GPR84 knockout or no target control CD8 […] T cells were added to wells to create an effector to target ratio of 0.5:1, 0.25:1, and 0.12:1 and incubated for 24 hours at 37° C., 5% C02. Cells were then harvested, stained with anti-CD8 to remove the T cell population and the percent specific lysis was captured by flow cytometry.
# Isolated pmel-I splenocytes were plated at a density of 2.5×10^6 in 1 ml of cRPMI-1640 containing 300 ng/ml anti-mouse CD3 (Biolegend #100340, clone 145-2C11), 500 IU/ml IL-2, 5 ng/ml IL-7 (PreproTech #217-17), and 100 ng/ml IL-15 (PreproTech #210-15) into a 24-well plate. Cells were incubated at 37° C., 5% CO2 for 48 hours. Cells were then pelleted and suspended to a concentration of 4×10^5 cells/ml in fresh cRPMI-1640 with 500 IU/ml IL-2 and cultured for an additional 24 hours at 37° C., 5% CO2. Before electroporation, T media was prepared consisting of modified cRPMI-1640 (20% FBS, 500 IU/ml IL-2, and no antibiotics). 615 μl of fresh T media was pipetted into 24-well plates. Preparation of CRISPR-Cas9 complexes and electroporation of primary T cells were conducted following the Alt-R CRISPR-Cas9 system using the Neon Transfection System instructions provided by Integrated DNA Technologies (IDT Coralville, IO). The program used for electroporation consisted of 1600V, 10 ms, and three pulses. […] Cells were counted 48 hours after electroporation and cRPMI-1640 supplemented with 500 IU/ml IL-2 was added to adjust the cell density to 4×10^5 cells/ml. […]
compound,measurement,setting,value
CCCCCCCCNc1cc(=O)[nH]c(=O)[nH]1 [6-OAU],chemotaxis,[1],increase chemotaxis
CCCCCc1cccc(CC(=O)O)c1 [PBI-4050],forced vital capacity,[2]; combination therapy with pirfenidone,worsened forced vital capacity
same,inflammatory and fibrotic biomarkers,[2]; patients treated with PBI-4050,"significant increase in IL-9, IL-7, MIP-Ibeta; also recorded: increase in IL-9, IL-7, MIP-1beta"
same,tolerability,"[2]; single agent and in combination with nintedanib or pirfenidone, phase II",well tolerated
same,ability to increase forced vital capacity,[2]; single agent and in combination with nintedanib,unsuccessful
same,HbA1c,[3],can reduce HbAlc
same,fibrotic capacity of cells,[4],reduced fibrotic capacity
same,glycemic control,[4],improved glycemic control
CCCCCc1cc(CCCCC)cc(CC(=O)O)c1 [PBI-4547],metabolic dysregulation (hyperglycemia and hypertriglyceridemia),[5],improved metabolic dysregulation
SIINFEKL,"OT-I proliferation response, predicted","CD8 OT-I T cells; 0.07 g SIINFEKL, selected sub-optimal vaccine dose",50%
same,"OT-I proliferation, lymph node","CD8 OT-I T cells; first five concentrations of SIINFEKL in IFA, 96 hours",~100%
same,"OT-I proliferation response, lymph node",CD8 OT-I T cells; in IFA,below 50%
"crGPR84: CRISPR-Cas9 guide RNA (SEQ ID NO: 2) used to knock out GPR84 in pmel-I CD8 T cells (guide CUCGAGCACUGGACCAAUACGUUUUAGAGCUAUGCU; RNA, 5' {AltR1}, 3' {AltR2}, backbone not given here)",specific lysis of gp100 pulsed EL4 target cells,"pmel-I CD8 T cells; 0.12:1 effector to target ratio, crNTC 38.6%",52.3%
same,specific lysis of gp100 pulsed EL4 target cells,"pmel-I CD8 T cells; 0.25:1 effector to target ratio, no target control 55.9%",72.5%
same,cytotoxicity vs no target control,pmel-I CD8 T cells; 0.5:1 effector to target ratio,did not find a significant difference
